# According to patent US20250250230A1, “HETEROCYCLIC COMPOUND” (TAKEDA PHARMACEUTICAL COMPANY LIMITED, priority 2022, published 2025):
# Molecular target: T1, human orexin type 2 receptor (Homo sapiens, UniProt O43614)
# T1 construct: expressed in transfected cells
# T1 sequence (O43614 1-444): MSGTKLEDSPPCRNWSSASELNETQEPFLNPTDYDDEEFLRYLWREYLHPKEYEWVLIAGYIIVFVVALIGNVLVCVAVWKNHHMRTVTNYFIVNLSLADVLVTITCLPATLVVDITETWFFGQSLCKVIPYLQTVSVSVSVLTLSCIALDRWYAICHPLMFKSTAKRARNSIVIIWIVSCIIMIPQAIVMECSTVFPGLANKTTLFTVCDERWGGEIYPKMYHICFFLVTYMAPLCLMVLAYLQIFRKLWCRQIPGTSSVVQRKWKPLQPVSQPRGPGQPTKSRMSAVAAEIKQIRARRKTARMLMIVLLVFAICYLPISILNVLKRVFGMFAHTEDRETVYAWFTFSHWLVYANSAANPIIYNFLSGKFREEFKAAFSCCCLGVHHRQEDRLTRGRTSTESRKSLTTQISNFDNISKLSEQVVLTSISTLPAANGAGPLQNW
# Test: Measurement of orexin type 2 receptor agonist activity (calcium fluorescence, Fluo-4 AM, FDSS)
# Type: cell-based
# Settings: test compound 3 μM; CHO cells expressing human OX2 receptor; DMSO = 0%, orexin A (human) = 100%
# Summary of the method: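 CHO-K1 cells stably expressing human OX2R were loaded with Fluo-4 AM (30 min 37 °C, 30 min RT) in HEPES-buffered HBSS with 0.1% BSA and probenecid. Calcium fluorescence was followed on FDSS for 2 min after compound addition; activity normalised to DMSO (0%) and 10 nM orexin A (100%).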
row,"OX2R agonist activity (3 μM, %)",Compound
1,102%,"CS(=O)(=O)NC1CCCN(C(=O)C2CC2c2ccccc2-c2c(F)cccc2F)C1 (racemic) [Example 39, a mixture of rac-N-{(3R)-1-[(1R,2R)-2-(2′,6′-difluoro[1,1′-biphenyl]-2-yl)cyclopropane-1-carbonyl]piperidin-3-yl}methanesulfonamide and rac-N-{(3S)-1-[(1R,2R)-2-(2′,6′-difluoro[1,1′-biphenyl]-2-yl)cyclopropane-1-carbonyl]piperidin-3-yl}methanesulfonamide]"
2,98%,"CS(=O)(=O)NC12CCC1CN(C(=O)C1CC1c1ccccc1-c1c(F)cccc1F)C2 (stereo not drawn) [Example 273, N-{3-[2-(2′,6′-difluoro[1,1′-biphenyl]-2-yl)cyclopropane-1-carbonyl]-3-azabicyclo[3.1.0]hexan-1-yl}methanesulfonamide optical isomer]"
3,97%,"CS(=O)(=O)NC1CCCCN(C(=O)C2CC2c2ccccc2-c2c(F)cccc2F)C1 (racemic) [Example 41, a mixture of rac-N-{(3R)-1-[(1R,2R)-2-(2′,6′-difluoro[1,1′-biphenyl]-2-yl)cyclopropane-1-carbonyl]azepan-3-yl}methanesulfonamide and rac-N-{(3S)-1-[(1R,2R)-2-(2′,6′-difluoro[1,1′-biphenyl]-2-yl)cyclopropane-1-carbonyl]azepan-3-yl}methanesulfonamide]"
4,86%,"C[C@H]1CN(C(=O)[C@@H]2C[C@H]2c2ccccc2-c2c(F)cccc2F)C[C@H]1NS(C)(=O)=O [Example 265, N-{(3S,4S)-1-[(1R,2R)-2-(2′,6′-difluoro[1,1′-biphenyl]-2-yl)cyclopropane-1-carbonyl]-4-methylpyrrolidin-3-yl}methanesulfonamide]"
5,79%,"CS(=O)(=O)NC1CCCN(C(=O)C2CC2c2ccccc2-c2cccc(F)c2F)CC1 (racemic) [Example 54, a mixture of rac-N-{(4R)-1-[(1R,2R)-2-(2′,3′-difluoro[1,1′-biphenyl]-2-yl)cyclopropane-1-carbonyl]azepan-4-yl}methanesulfonamide and rac-N-{(4S)-1-[(1R,2R)-2-(2′,3′-difluoro[1,1′-biphenyl]-2-yl)cyclopropane-1-carbonyl]azepan-4-yl}methanesulfonamide]"
6,100%,"CC1C(C(=O)N2CCC[C@H](NS(C)(=O)=O)CC2)C1c1ccccc1-c1c(F)cccc1F (mixture of isomers) [Example 308, a mixture of N-{(4S)-1-[(1R,2R,3S)-2-(2′,6′-difluoro[1,1′-biphenyl]-2-yl)-3-methylcyclopropane-1-carbonyl]azepan-4-yl}methanesulfonamide and N-{(4S)-1-[(1S,2S,3R)-2-(2′,6′-difluoro[1,1′-biphenyl]-2-yl)-3-methylcyclopropane-1-carbonyl]azepan-4-yl}methanesulfonamide]"
7,103%,"CS(=O)(=O)NC[C@@H]1CCN1C(=O)C1(CO)CC1c1ccccc1-c1c(F)cccc1F (stereo partly drawn) [Example 365, N-({(2S)-1-[(1R,2S)-2-(2′,6′-difluoro[1,1′-biphenyl]-2-yl)-1-(hydroxymethyl)cyclopropane-1-carbonyl]azetidin-2-yl}methyl)methanesulfonamide, or N-({(2S)-1-[(1S,2R)-2-(2′,6′-difluoro[1,1′-biphenyl]-2-yl)-1-(hydroxymethyl)cyclopropane-1-carbonyl]azetidin-2-yl}methyl)methanesulfonamide]"
8,96%,"C[C@H]1C[C@H](NS(=O)(=O)N(C)C)CN1C(=O)[C@@H]1C[C@H]1c1ccccc1-c1c(F)cccc1F [Example 281, N′-{(3S,5S)-1-[(1R,2R)-2-(2′,6′-difluoro[1,1′-biphenyl]-2-yl)cyclopropane-1-carbonyl]-5-methylpyrrolidin-3-yl}-N,N-dimethylsulfuric diamide]"
9,95%,"CS(=O)(=O)N[C@H]1CCCN(C(=O)[C@@H]2C[C@H]2c2ccccc2-c2c(F)cccc2F)C1 [Example 24, N-{(3S)-1-[(1R,2R)-2-(2′,6′-difluoro [1,1′-biphenyl]-2-yl)cyclopropane-1-carbonyl]piperidin-3-yl}methanesulfonamide]"
10,101%,"O=C(C1CC1c1ccccc1-c1c(F)cccc1F)N1CCC[C@H](NS(=O)(=O)CF)C1 (mixture of isomers) [Example 207, a mixture of N-{(3S)-1-[(1R,2R)-2-(2′,6′-difluoro[1,1′-biphenyl]-2-yl)cyclopropane-1-carbonyl]piperidin-3-yl}-1-fluoromethanesulfonamide and N-{(3S)-1-[(1S,2S)-2-(2′,6′-difluoro[1,1′-biphenyl]-2-yl)cyclopropane-1-carbonyl]piperidin-3-yl}-1-fluoromethanesulfonamide]"
11,84%,"CC1(C(=O)N2CC[C@H]2CNS(C)(=O)=O)CC1(F)c1ccccc1-c1c(F)cccc1F (stereo partly drawn) [Example 356, N-({(2S)-1-[(1R,2S)-2-(2′,6′-difluoro[1,1′-biphenyl]-2-yl)-2-fluoro-1-methylcyclopropane-1-carbonyl]azetidin-2-yl}methyl)methanesulfonamide, or N-({(2S)-1-[(1S,2R)-2-(2′,6′-difluoro[1,1′-biphenyl]-2-yl)-2-fluoro-1-methylcyclopropane-1-carbonyl]azetidin-2-yl}methyl)methanesulfonamide]"
12,103%,"CNS(=O)(=O)NC[C@@H]1CCN1C(=O)[C@@H]1C[C@H]1c1ccccc1-c1c(F)cccc1F [Example 339, N-({(2S)-1-[(1R,2R)-2-(2′,6′-difluoro[1,1′-biphenyl]-2-yl)cyclopropane-1-carbonyl]azetidin-2-yl}methyl)-N′-methylsulfuric diamide]"
13,99%,"CS(=O)(=O)N[C@@H]1CN(C(=O)C2CC2c2ccccc2-c2c(F)cccc2F)CC[C@@H]1F (stereo partly drawn) [Example 216, N-{(3R,4S)-1-[(1R,2R)-2-(2′,6′-difluoro[1,1′-biphenyl]-2-yl)cyclopropane-1-carbonyl]-4-fluoropiperidin-3-yl}methanesulfonamide, or N-{(3R,4S)-1-[(1S,2S)-2-(2′,6′-difluoro[1,1′-biphenyl]-2-yl)cyclopropane-1-carbonyl]-4-fluoropiperidin-3-yl}methanesulfonamide]"
14,105%,"CS(=O)(=O)NC1COCCN(C(=O)[C@@H]2C[C@H]2c2ccccc2-c2c(F)cccc2F)C1 (stereo partly drawn) [Example 249, N-{(6R)-4-[(1R,2R)-2-(2′,6′-difluoro[1,1′-biphenyl]-2-yl)cyclopropane-1-carbonyl]-1,4-oxazepan-6-yl}methanesulfonamide, or N-{(6S)-4-[(1R,2R)-2-(2′,6′-difluoro[1,1′-biphenyl]-2-yl)cyclopropane-1-carbonyl]-1,4-oxazepan-6-yl}methanesulfonamide]"
15,94%,"CN(C)S(=O)(=O)NCC1CN(C(=O)[C@@H]2C[C@H]2c2ccccc2-c2c(F)cccc2F)CCO1 (stereo in doubt) [Example 284, N′-({(2R)-4-[(1R,2R)-2-(2′,6′-difluoro[1,1′-biphenyl]-2-yl)cyclopropane-1-carbonyl]morpholin-2-yl}methyl)-N,N-dimethylsulfuric diamide]"
16,95%,"CS(=O)(=O)NC1CN(C(=O)C2CC2c2ccccc2-c2c(F)cccc2F)CC1(F)F (stereo not drawn) [Example 180, N-{1-[2-(2′,6′-difluoro[1,1′-biphenyl]-2-yl)cyclopropane-1-carbonyl]-4,4-difluoropyrrolidin-3-yl}methanesulfonamide optical isomer]"
17,104%,"CN(C)S(=O)(=O)NC1CCCN(C(=O)C2CC2c2ccccc2-c2c(F)cccc2F)C1 (racemic) [Example 164, a mixture of rac-N′-{(3R)-1-[(1R,2R)-2-(2′,6′-difluoro[1,1′-biphenyl]-2-yl)cyclopropane-1-carbonyl]piperidin-3-yl}-N,N-dimethylsulfuric diamide and rac-N′-{(3S)-1-[(1R,2R)-2-(2′,6′-difluoro[1,1′-biphenyl]-2-yl)cyclopropane-1-carbonyl]piperidin-3-yl}-N,N-dimethylsulfuric diamide]"
18,104%,"CCS(=O)(=O)NC1COCCN(C(=O)[C@@H]2C[C@H]2c2ccccc2-c2c(F)cccc2F)C1 (stereo partly drawn) [Example 294, N-{(6S)-4-[(1R,2R)-2-(2′,6′-difluoro [1,1′-biphenyl]-2-yl)cyclopropane-1-carbonyl]-1,4-oxazepan-6-yl}ethanesulfonamide, or N-{(6R)-4-[(1R,2R)-2-(2′,6′-difluoro[1,1′-biphenyl]-2-yl)cyclopropane-1-carbonyl]-1,4-oxazepan-6-yl}ethanesulfonamide]"
19,94%,"CS(=O)(=O)NC1CCN(C(=O)C2CC2c2c(F)cccc2-c2c(F)cccc2F)C1 (stereo not drawn) [Example 210, N-{1-[2-(2′,3,6′-trifluoro[1,1′-biphenyl]-2-yl)cyclopropane-1-carbonyl]pyrrolidin-3-yl}methanesulfonamide optical isomer]"
